Reference: patent US20130302442A1, “METHODS OF USING (4S,4AS,5AR,12AS)-4-DIMETHYLAMINO-3,10,12,12A-TETRAHYDROXY-7-[(METHOXY(METHYL)AMINO)-METHYL]-1,11-DIOXO-1,4,4A,5,5A,6,11,12A-OCTAHYDRO-NAPHTHACENE-2-CARBOXYLIC ACID AMIDE” (priority 2012, published 2013)
≈ marks a conversion by molar mass, not a printed value. Where two headings read alike, the source gives them in different places.

Experiments:
E. faecium = assay: In vitro MIC testing, antibacterial spectrum of activity; type: cell-based; conditions: for MIC50 / MIC90: Enterococcus faecium
S. pneumoniae = assay: as above; type: cell-based, Streptococcus pneumoniae
S. haemolyticus = assay: as above; type: cell-based; conditions: for MIC50 / MIC90: Staphylococcus haemolyticus
S. aureus = assay: as above; type: cell-based, Staphylococcus aureus; conditions: for MIC50 / MIC90: Staphylococcus aureus
S. pyogenes = assay: as above; type: cell-based
[1] = tested on: Streptococcus spp. [Group C]; assay: as above; type: cell-based
S. epidermidis = assay: as above; type: cell-based, Staphylococcus epidermidis; conditions: for MIC50 / MIC90: Staphylococcus epidermidis
E. faecalis = assay: as above; type: cell-based; conditions: for MIC50 / MIC90: Enterococcus faecalis
P. acnes = assay: as above; type: cell-based, Propionibacterium acnes
S. agalactiae = assay: as above; type: cell-based
[2] = tested on: hospital-associated methicillin-resistant S. aureus (MRSA-HA); assay: In vitro MIC against isolates of MRSA-HA; type: cell-based, Staphylococcus aureus; conditions: for MIC50 / MIC90: Staphylococcus aureus
[3] = tested on: methicillin-sensitive S. aureus (MSSA); assay: In vitro MIC against isolates of MSSA; type: cell-based, Staphylococcus aureus; conditions: for MIC Range / MIC50 / MIC90: MSSA (34 isolates); for MIC50 / MIC90: Staphylococcus aureus; for MIC90: read-out: MIC90
[4] = tested on: community-acquired methicillin-resistant S. aureus (MRSA-CA); assay: In vitro MIC against isolates of MRSA-CA; type: cell-based, Staphylococcus aureus; conditions: for MIC50 / MIC90: Staphylococcus aureus
[5] = S. haemolyticus (33 isolates), read-out: MIC50
[6] = S. haemolyticus (33 isolates), read-out: MIC90
[7] = MRSA, S. aureus [MRSA] (31 isolates), read-out: MIC50
[8] = MRSA, S. aureus [MRSA] (31 isolates), read-out: MIC90
[9] = MSSA, S. aureus [MSSA] (32 isolates), read-out: MIC50
[10] = MSSA, S. aureus [MSSA] (32 isolates), read-out: MIC90
[11] = S. epidermidis [MRSE] (32 isolates), read-out: MIC50
[12] = S. epidermidis [MRSE] (32 isolates), read-out: MIC90
[13] = S. epidermidis [MSSE] (31 isolates), read-out: MIC50
[14] = S. epidermidis [MSSE] (31 isolates), read-out: MIC90
[15] = S. epidermidis [MSSE] (31 isolates)
[16] = S. pneumoniae [PSSP] (32 isolates)
[17] = Streptococcus spp. [Group C] (30 isolates)

Molecule `CC[C@H]1OC(=O)[C@H](C)[C@@H](O[C@H]2C[C@@](C)(OC)[C@@H](O)[C@H](C)O2)[C@H](C)[C@@H](O[C@@H]2O[C@H](C)C[C@H](N(C)C)[C@H]2O)[C@](C)(O)C[C@@H](C)C(=O)[C@H](C)[C@@H](O)[C@]1(C)O` [Erythromycin] has an MIC50 (E. faecium) of over 32 µg/mL, an MIC90 (E. faecium) of over 32 µg/mL and an MIC50 (E. faecium; VRE) of over 32 µg/mL. The MIC90 (E. faecium; VRE) was over 32 µg/mL, the MIC50 (S. pneumoniae; Streptococcus pneumoniae, S. pneumoniae [PSSP] (32 isolates), read-out: MIC50) was 0.03 µg/mL (≈ 0.0409 µM) and the MIC90 (S. pneumoniae; Streptococcus pneumoniae, S. pneumoniae [PSSP] (32 isolates), read-out: MIC90) was 2 µg/mL (≈ 2.73 µM). It also gave an MIC50 (S. haemolyticus; [5]) of over 32 µg/mL, an MIC90 (S. haemolyticus; [6]) of over 32 µg/mL and an MIC50 (S. aureus; [7]) of over 32 µg/mL. It also gave an MIC90 (S. aureus; [8]) of over 32 µg/mL, an MIC50 (S. aureus; [9]) of 0.5 µg/mL (≈ 0.681 µM) and an MIC90 (S. aureus; [10]) of over 32 µg/mL. The MIC50 (S. pyogenes; Streptococcus pyogenes) was 0.06 µg/mL (≈ 0.0818 µM), the MIC90 (S. pyogenes; Streptococcus pyogenes) was 0.06 µg/mL (≈ 0.0818 µM) and the MIC50 ([1]; Streptococcus spp. [Group C] (30 isolates), read-out: MIC50) was 0.06 µg/mL (≈ 0.0818 µM). The MIC90 ([1]; Streptococcus spp. [Group C] (30 isolates), read-out: MIC90) was 4 µg/mL (≈ 5.45 µM), the MIC50 (S. epidermidis; [11]) was over 32 µg/mL and the MIC90 (S. epidermidis; [12]) was over 32 µg/mL. The MIC50 (S. epidermidis; [13]) was 0.25 µg/mL (≈ 0.341 µM), the MIC90 (S. epidermidis; [14]) was over 32 µg/mL and the MIC50 (E. faecalis) was over 32 µg/mL. It also gave an MIC90 (E. faecalis) of over 32 µg/mL, an MIC50 (P. acnes; Cutibacterium acnes, read-out: MIC50) of at most 0.06 µg/mL and an MIC90 (P. acnes; Cutibacterium acnes, read-out: MIC90) of over 128 µg/mL. It also gave an MIC50 (S. agalactiae; Streptococcus agalactiae) of 0.06 µg/mL (≈ 0.0818 µM) and an MIC90 (S. agalactiae; Streptococcus agalactiae) of over 16 µg/mL.

`CC(=O)NC[C@H]1CN(c2ccc(N3CCOCC3)c(F)c2)C(=O)O1` [Linezolid] was tested, and the “MIC Range” value ([2]; MRSA-HA (33 isolates)) was 2 to 4 µg/mL, the MIC50 ([2]; MRSA-HA (33 isolates)) was 2 µg/mL (≈ 5.93 µM) and the MIC90 ([2]; MRSA-HA (33 isolates)) was 2 µg/mL (≈ 5.93 µM). The “susceptibility of the test organisms” value ([2]; all MRSA-HA organisms) was “susceptible”, the “MIC Range” value [3] was 2 to 4 µg/mL and the MIC50 [3] was 2 µg/mL (≈ 5.93 µM). The MIC90 [3] was 4 µg/mL (≈ 11.9 µM), the “susceptibility of the test organisms” value ([3]; all MSSA test organisms) was “susceptible” and the “MIC Range” value ([4]; MRSA-CA (33 isolates)) was 2 to 4 µg/mL. The MIC50 ([4]; MRSA-CA (33 isolates)) was 2 µg/mL (≈ 5.93 µM), the MIC90 ([4]; MRSA-CA (33 isolates)) was 4 µg/mL (≈ 11.9 µM) and the “susceptibility of the test organisms” value ([4]; all MRSA-CA test organisms) was “susceptible”.

With `Cc1onc(-c2ccccc2)c1C(=O)N[C@@H]1C(=O)N2[C@@H]1SC(C)(C)[C@@H]2C(=O)O` [Oxacillin] the MIC50 (S. haemolyticus; [5]) was 0.25 µg/mL (≈ 0.623 µM), the MIC90 (S. haemolyticus; [6]) was over 32 µg/mL and the “MIC Range” value (S. aureus; S. aureus [MSSA] (32 isolates)) was 0.12 to 1 µg/mL. For the same molecule, the MIC50 (S. aureus; [7]) was over 32 µg/mL, the MIC90 (S. aureus; [8]) was over 32 µg/mL and the MIC50 (S. aureus; [9]) was 0.5 µg/mL (≈ 1.25 µM). The MIC90 (S. aureus; [10]) was 1 µg/mL (≈ 2.49 µM), the MIC50 ([2]; MRSA-HA (33 isolates)) was 32 µg/mL (≈ 79.7 µM) and the MIC90 ([2]; MRSA-HA (33 isolates)) was over 32 µg/mL. The “MIC Range” value [3] was 0.25 to 2 µg/mL, the MIC50 [3] was 0.25 µg/mL (≈ 0.623 µM) and the MIC90 [3] was 0.5 µg/mL (≈ 1.25 µM). The MIC50 ([4]; MRSA-CA (33 isolates)) was 32 µg/mL (≈ 79.7 µM), the MIC90 ([4]; MRSA-CA (33 isolates)) was over 32 µg/mL and the “MIC Range” value (S. epidermidis; [15]) was 0.06 to 0.25 µg/mL. For the same molecule, the MIC50 (S. epidermidis; [11]) was 32 µg/mL (≈ 79.7 µM), the MIC90 (S. epidermidis; [12]) was over 32 µg/mL and the MIC50 (S. epidermidis; [13]) was 0.12 µg/mL (≈ 0.299 µM). The MIC90 (S. epidermidis; [14]) was 0.25 µg/mL (≈ 0.623 µM).

For `CN[C@H](CC(C)C)C(=O)N[C@H]1C(=O)N[C@@H](CC(N)=O)C(=O)N[C@H]2C(=O)N[C@H]3C(=O)N[C@H](C(=O)N[C@H](C(=O)O)c4cc(O)cc(O)c4-c4cc3ccc4O)[C@H](O)c3ccc(c(Cl)c3)Oc3cc2cc(c3O[C@@H]2O[C@H](CO)[C@@H](O)[C@H](O)[C@H]2O[C@H]2C[C@](C)(N)[C@H](O)[C@H](C)O2)Oc2ccc(cc2Cl)[C@H]1O` [Vancomycin], the “MIC Range” value (E. faecium; E. faecium [VRE] (30 isolates)) was over 64 µg/mL, the “MIC Range” value (E. faecium; E. faecium [VSE] (32 isolates)) was 0.25 to 2 µg/mL and the MIC50 (E. faecium) was 1 µg/mL (≈ 0.69 µM). The MIC90 (E. faecium) was 1 µg/mL (≈ 0.69 µM), the MIC50 (E. faecium; VRE) was over 64 µg/mL and the MIC90 (E. faecium; VRE) was over 64 µg/mL. For the same molecule, the “MIC Range” value (S. pneumoniae; [16]) was 0.06 to 0.25 µg/mL, the MIC50 (S. pneumoniae; Streptococcus pneumoniae) was 0.25 µg/mL (≈ 0.173 µM) and the MIC90 (S. pneumoniae; Streptococcus pneumoniae) was 0.25 µg/mL (≈ 0.173 µM). For the same molecule, the “MIC Range” value (S. haemolyticus; S. haemolyticus (33 isolates)) was 0.5 to 2 µg/mL, the MIC50 (S. haemolyticus) was 1 µg/mL (≈ 0.69 µM) and the MIC90 (S. haemolyticus) was 1 µg/mL (≈ 0.69 µM). The “MIC Range” value (S. aureus; S. aureus [MRSA] (31 isolates)) was 0.5 to 2 µg/mL, the “MIC Range” value (S. aureus; S. aureus [MSSA] (32 isolates)) was 0.5 to 1 µg/mL and the MIC50 (S. aureus; MRSA) was 1 µg/mL (≈ 0.69 µM). It also gave an MIC90 (S. aureus; MRSA) of 1 µg/mL (≈ 0.69 µM), an MIC50 (S. aureus; MSSA) of 1 µg/mL (≈ 0.69 µM) and an MIC90 (S. aureus; MSSA) of 1 µg/mL (≈ 0.69 µM). For the same molecule, the “MIC Range” value (S. pyogenes; S. pyogenes (32 isolates)) was 0.25 to 0.5 µg/mL, the MIC50 (S. pyogenes; Streptococcus pyogenes) was 0.25 µg/mL (≈ 0.173 µM) and the MIC90 (S. pyogenes; Streptococcus pyogenes) was 0.25 µg/mL (≈ 0.173 µM). The MIC50 ([1]; Streptococcus) was 0.25 µg/mL (≈ 0.173 µM), the MIC90 ([1]; Streptococcus) was 0.5 µg/mL (≈ 0.345 µM) and the “MIC Range” value [1, 17] was 0.25 to 1 µg/mL. For the same molecule, the “MIC Range” value (S. epidermidis; S. epidermidis [MRSE] (32 isolates)) was 1 to 2 µg/mL, the “MIC Range” value (S. epidermidis; [15]) was 1 to 2 µg/mL and the MIC50 (S. epidermidis) was 2 µg/mL (≈ 1.38 µM). For the same molecule, the MIC90 (S. epidermidis) was 2 µg/mL (≈ 1.38 µM), the MIC50 (S. epidermidis; MRSE) was 2 µg/mL (≈ 1.38 µM) and the MIC90 (S. epidermidis; MRSE) was 2 µg/mL (≈ 1.38 µM). The “MIC Range” value (E. faecalis; E. faecalis [VSE] (31 isolates)) was 0.5 to 4 µg/mL, the MIC50 (E. faecalis) was 1 µg/mL (≈ 0.69 µM) and the MIC90 (E. faecalis) was 2 µg/mL (≈ 1.38 µM). For the same molecule, the “MIC Range” value (P. acnes) was 0.5-0.5 μg/mL, the “MIC Range” value (S. agalactiae; S. agalactiae (31 isolates)) was 0.25 to 2 µg/mL and the MIC50 (S. agalactiae; Streptococcus agalactiae) was 0.5 µg/mL (≈ 0.345 µM). For the same molecule, the MIC90 (S. agalactiae; Streptococcus agalactiae) was 0.5 µg/mL (≈ 0.345 µM).

Penicillin was tested, and the MIC50 (S. pneumoniae; [16]) was “≦0.015 μg/mL”, the MIC90 (S. pneumoniae; [16]) was 0.06 µg/mL and the “MIC Range” value (S. pneumoniae; [16]) was “≦0.015-0.12 μg/mL”. The MIC50 (S. pyogenes; S. pyogenes (32 isolates)) was “≦0.015 μg/mL”, the MIC90 (S. pyogenes; S. pyogenes (32 isolates)) was “≦0.015 μg/mL” and the “MIC Range” value (S. pyogenes; S. pyogenes (32 isolates)) was “≦0.015-0.25 μg/mL”. The MIC50 [1, 17] was “≦0.015 μg/mL”, the MIC90 [1, 17] was “≦0.015 μg/mL” and the “MIC Range” value [1, 17] was “≦0.015-0.03 μg/mL”. The “MIC Range” value (P. acnes) was 0.03 to 0.5 µg/mL, the MIC50 (S. agalactiae; S. agalactiae (31 isolates)) was 0.03 µg/mL and the MIC90 (S. agalactiae; S. agalactiae (31 isolates)) was 1 µg/mL. For the same molecule, the “MIC Range” value (S. agalactiae; S. agalactiae (31 isolates)) was “≦0.015-2 μg/mL”.
